The values that follow come from the supplement of paper PMC6045584.

Compound in one assay: COc1ccc(C2=N[C@@H](c3ccc(Cl)cc3)[C@@H](c3ccc(Cl)cc3)N2C(=O)N2CCNC(=O)C2)c(OC(C)C)c1 [NUTLIN3]
In words: surviving fraction relative to DMSO-only wells; higher = less growth inhibition. The settings on record: exposure time: 5 days. In short, it runs like this:
(§1)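 Continuous five-day exposure to inhibitors at 0.5, 1, 5, 10, 50, 100, 500 and 1000 nM started 24 hours after log-phase tumour cell lines were seeded at 250–500 cells per well in 384-well plates. Luminescence was read after 10 minutes at room temperature. Viability is given as surviving fraction, meaning CellTiter-Glo luminescence normalised to the median of DMSO-only wells.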

Compound in another assay: CN1CC[C@H](c2c(O)cc(O)c3c(=O)cc(-c4ccccc4Cl)oc23)[C@H](O)C1 [FLAVOPIRIDOL]
The assay is described as above. Particulars: exposure time: 5 days. An outline of the steps: as §1

± gives the standard deviation of the averaged measurements.

Consider “JURKAT HAEMATOPOIETIC AND LYMPHOID TISSUE”, for which the surviving fraction in the assay with NUTLIN3 (0.5 nM) worked out at 1.11 ± 0.031; with NUTLIN3 (1 nM), 1.1 ± 0.015; with NUTLIN3 (5 nM), 1.07 ± 0.015; with NUTLIN3 (10 nM) it was 1.06 ± 0.017; in the assay with NUTLIN3 (50 nM) it was 1.05 ± 0.078; with NUTLIN3 (100 nM), 1.03 ± 0.012. Also, the surviving fraction in the assay with NUTLIN3 (500 nM) was found to be 1.02 ± 0.022; with NUTLIN3 (1000 nM) it was 1.03 ± 0.013; in the assay with FLAVOPIRIDOL (0.5 nM) it was 1.04 ± 0.018; with FLAVOPIRIDOL (1 nM) it was 1.07 ± 0.046; with FLAVOPIRIDOL (5 nM), 1.05 ± 0.026; in the assay with FLAVOPIRIDOL (10 nM) it was 1.04 ± 0.042. The surviving fraction was 0.708 ± 0.022 with FLAVOPIRIDOL (50 nM), 0.119 ± 0.0035 with FLAVOPIRIDOL (100 nM), 0.031 ± 0.001 with FLAVOPIRIDOL (500 nM) and 0.0303 ± 0.0011 in the assay with FLAVOPIRIDOL (1000 nM).
Turning to KPD BONE, the surviving fraction stood at 0.968 ± 0.042 in the assay with NUTLIN3 (0.5 nM); 0.966 ± 0.049 with NUTLIN3 (1 nM); 1.05 ± 0.064 in the assay with NUTLIN3 (5 nM); 0.987 ± 0.023 in the assay with NUTLIN3 (10 nM); 1.03 ± 0.061 in the assay with NUTLIN3 (50 nM); 1.01 ± 0.098 with NUTLIN3 (100 nM). For the same test system, the surviving fraction with NUTLIN3 (500 nM) is 1.01 ± 0.017; in the assay with NUTLIN3 (1000 nM), 0.962 ± 0.075; with FLAVOPIRIDOL (0.5 nM), 0.881 ± 0.31; with FLAVOPIRIDOL (1 nM), 1.01 ± 0.074; with FLAVOPIRIDOL (5 nM), 1.08 ± 0.048; with FLAVOPIRIDOL (10 nM) it was 0.997 ± 0.03. The surviving fraction in the assay with FLAVOPIRIDOL (50 nM) worked out at 0.525 ± 0.035; in the assay with FLAVOPIRIDOL (100 nM), 0.101 ± 0.015; with FLAVOPIRIDOL (500 nM), 0.031 ± 0.0017; with FLAVOPIRIDOL (1000 nM), 0.0277 ± 0.006.
Take LM7 BONE: the surviving fraction with NUTLIN3 (0.5 nM) amounted to 0.99 ± 0.075; with NUTLIN3 (1 nM), 0.977 ± 0.082; in the assay with NUTLIN3 (5 nM) it was 1.05 ± 0.025; with NUTLIN3 (10 nM), 1.07 ± 0.14; with NUTLIN3 (50 nM) it was 0.987 ± 0.065; in the assay with NUTLIN3 (100 nM), 1.08 ± 0.046. Moreover, the surviving fraction with NUTLIN3 (500 nM) turned out to be 1.03 ± 0.1; with NUTLIN3 (1000 nM), 0.994 ± 0.05; in the assay with FLAVOPIRIDOL (0.5 nM), 1.06 ± 0.022; with FLAVOPIRIDOL (1 nM) it was 1.08 ± 0.096; with FLAVOPIRIDOL (5 nM) it was 1.15 ± 0.11; with FLAVOPIRIDOL (10 nM), 1.1 ± 0.091. In addition, the surviving fraction was 0.824 ± 0.031 in the assay with FLAVOPIRIDOL (50 nM), 0.446 ± 0.016 in the assay with FLAVOPIRIDOL (100 nM), 0.0593 ± 0.0038 in the assay with FLAVOPIRIDOL (500 nM) and 0.0543 ± 0.0029 with FLAVOPIRIDOL (1000 nM).
As to LNCAP PROSTATE, the surviving fraction in the assay with NUTLIN3 (0.5 nM) is 1.03 ± 0.034; in the assay with NUTLIN3 (1 nM), 1.01 ± 0.078; with NUTLIN3 (5 nM) it was 0.955 ± 0.065; with NUTLIN3 (10 nM) it was 1 ± 0.086; with NUTLIN3 (50 nM) it was 0.956 ± 0.073; in the assay with NUTLIN3 (100 nM), 0.803 ± 0.089. Also, the surviving fraction with NUTLIN3 (500 nM) was determined as 0.491 ± 0.12; with NUTLIN3 (1000 nM), 0.289 ± 0.011; with FLAVOPIRIDOL (0.5 nM), 0.884 ± 0.014; in the assay with FLAVOPIRIDOL (1 nM) it was 0.917 ± 0.0082; with FLAVOPIRIDOL (5 nM), 0.849 ± 0.038; in the assay with FLAVOPIRIDOL (10 nM), 0.84 ± 0.015. The surviving fraction was 0.409 ± 0.071 with FLAVOPIRIDOL (50 nM), 0.028 ± 0.0036 with FLAVOPIRIDOL (100 nM), 0.043 ± 0.0027 in the assay with FLAVOPIRIDOL (500 nM) and 0.0397 ± 0.0011 with FLAVOPIRIDOL (1000 nM).
For the test system MCF7 BREAST, the surviving fraction in the assay with NUTLIN3 (0.5 nM) came out at 0.881 ± 0.036; with NUTLIN3 (1 nM) it was 0.841 ± 0.038; in the assay with NUTLIN3 (5 nM), 0.819 ± 0.013; with NUTLIN3 (10 nM) it was 0.821 ± 0.038; in the assay with NUTLIN3 (50 nM), 0.939 ± 0.021; with NUTLIN3 (100 nM), 0.952 ± 0.051. Besides, the surviving fraction amounted to 0.865 ± 0.013 with NUTLIN3 (500 nM); 0.85 ± 0.039 with NUTLIN3 (1000 nM); 0.982 ± 0.083 in the assay with FLAVOPIRIDOL (0.5 nM); 0.973 ± 0.031 in the assay with FLAVOPIRIDOL (1 nM); 0.979 ± 0.032 with FLAVOPIRIDOL (5 nM); 0.865 ± 0.031 with FLAVOPIRIDOL (10 nM). Also, the surviving fraction in the assay with FLAVOPIRIDOL (50 nM) was found to be 0.816 ± 0.038; with FLAVOPIRIDOL (100 nM) it was 0.167 ± 0.011; with FLAVOPIRIDOL (500 nM) it was 0.163 ± 0.024; with FLAVOPIRIDOL (1000 nM), 0.157 ± 0.0056.
